Consider 17 compounds from patent US8557833B2, “Aminopyrimidines useful as kinase inhibitors” (priority 2005, dated 2013).

SMILES strings stand for the structures. pKi: −log10 of the molar value. Where two headings read alike, the source gives them in different places. Where only a bound is given, the exact number is not on record here.

Common to all, as to assay type: biochemical
For one assay, the target named is JAK-2 (Homo sapiens, UniProt O60674). Briefly: JAK2 inhibition assay. The conditions noted are these: 12 μM ATP, 15 μM poly(Glu)4Tyr.
The next assay has as its target Aurora-1 (Aurora B) (Homo sapiens, UniProt Q96GD4). Briefly: Aurora-1 (Aurora B) inhibition assay (radiometric). The procedure: An assay buffer solution was prepared which consisted of 25 mM HEPES (pH 7.5), 10 mM MgCl2, 0.1% BSA and 10% glycerol. […] To 22 μL of the Aurora-B solution, in a 96-well plate, was added 2 μl of a compound stock solution in DMSO and the mixture allowed to equilibrate for 10 minutes at 25° C. The enzyme reaction was initiated by the addition of 16 μl stock [γ-^33P]-ATP solution (˜20 nCi/μL) prepared in assay buffer, to a final assay concentration of 800 μM. The reaction was stopped after 3 hours by the addition of 16 μL 500 mM phosphoric acid and the levels of ^33P incorporation into the peptide substrate were determined by the following method.
A phosphocellulose 96-well plate (Millipore, Cat no. MAPHNOB50) was pre-treated with 100 μL of a 100 mM phosphoric acid prior to the addition of the enzyme reaction mixture (40 μL). The solution was left to soak on to the phosphocellulose membrane for 30 minutes and the plate subsequently washed four times with 200 μL of a 100 mM phosphoric acid. […] Levels of non-enzyme catalyzed background radioactivity were determined by adding 16 μL of the 500 mM phosphoric acid to control wells, containing all assay components (which acts to denature the enzyme), prior to the addition of the [γ-^33P]-ATP solution. Levels of enzyme catalyzed ^33P incorporation were calculated by subtracting mean background counts from those measured at each inhibitor concentration. […] Ki values were calculated from initial rate data by non-linear regression using the Prism software package (Prism 3.0, Graphpad Software, San Diego, Calif.).

For a further assay, the target named is T1, Aurora-2 (Aurora A) (Homo sapiens, UniProt O14965).
T1 sequence (O14965 1-403): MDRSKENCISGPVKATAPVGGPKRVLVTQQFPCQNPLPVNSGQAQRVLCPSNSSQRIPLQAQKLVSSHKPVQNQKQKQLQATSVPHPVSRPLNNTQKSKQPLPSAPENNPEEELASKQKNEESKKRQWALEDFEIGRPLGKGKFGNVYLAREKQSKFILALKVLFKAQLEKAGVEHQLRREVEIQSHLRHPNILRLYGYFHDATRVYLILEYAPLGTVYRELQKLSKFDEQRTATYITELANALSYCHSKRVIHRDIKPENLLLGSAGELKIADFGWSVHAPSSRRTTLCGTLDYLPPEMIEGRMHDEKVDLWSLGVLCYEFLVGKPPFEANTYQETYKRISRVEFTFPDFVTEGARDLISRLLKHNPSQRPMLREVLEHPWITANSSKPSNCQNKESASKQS
Description: Aurora-2 (Aurora A) inhibition assay, coupled enzyme. Here is the method:
Assays were carried out in a mixture of 100 mM Hepes (pH7.5), 10 mM MgCl2, 1 mM DTT, 25 mM NaCl, 2.5 mM phosphoenolpyruvate, 300 μM NADH, 30 μg/ml pyruvate kinase and 10 μg/ml lactate dehydrogenase. […] Assays were carried out at 30° C. and in the presence of 40 nM Aurora-2.
An assay stock buffer solution was prepared containing all of the reagents listed above, with the exception of Aurora-2 and the test compound of interest. […] The plate was preincubated for 10 minutes at 30° C. and the reaction initiated by addition of 10 μl of Aurora-2. Initial reaction rates were determined with a Molecular Devices SpectraMax Plus plate reader over a 10 minute time course. IC50 and Ki data were calculated from non-linear regression analysis using the Prism software package (GraphPad Prism version 3.0cx for Macintosh, GraphPad Software, San Diego Calif., USA).

[1] abbreviates: 800 μM ATP, Kemptide, 25° C., read-out: Aurora B Ki.
[2] abbreviates: 400 μM ATP, 570 μM Kemptide, 30° C., 40 nM Aurora-2, read-out: Aurora A Ki.

Sequence of Aurora-1 (Aurora B) (Q96GD4 whole entry): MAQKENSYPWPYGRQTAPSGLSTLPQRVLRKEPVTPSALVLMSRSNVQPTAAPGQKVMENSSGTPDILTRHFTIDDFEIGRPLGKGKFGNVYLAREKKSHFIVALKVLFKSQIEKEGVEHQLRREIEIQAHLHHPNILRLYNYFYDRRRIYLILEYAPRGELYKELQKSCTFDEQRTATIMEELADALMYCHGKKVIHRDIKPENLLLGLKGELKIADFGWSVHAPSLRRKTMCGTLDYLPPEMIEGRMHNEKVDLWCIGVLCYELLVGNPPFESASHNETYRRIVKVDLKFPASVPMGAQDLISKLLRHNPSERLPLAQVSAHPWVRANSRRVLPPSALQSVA
Sequence of JAK-2 (O60674 whole entry, species assumed): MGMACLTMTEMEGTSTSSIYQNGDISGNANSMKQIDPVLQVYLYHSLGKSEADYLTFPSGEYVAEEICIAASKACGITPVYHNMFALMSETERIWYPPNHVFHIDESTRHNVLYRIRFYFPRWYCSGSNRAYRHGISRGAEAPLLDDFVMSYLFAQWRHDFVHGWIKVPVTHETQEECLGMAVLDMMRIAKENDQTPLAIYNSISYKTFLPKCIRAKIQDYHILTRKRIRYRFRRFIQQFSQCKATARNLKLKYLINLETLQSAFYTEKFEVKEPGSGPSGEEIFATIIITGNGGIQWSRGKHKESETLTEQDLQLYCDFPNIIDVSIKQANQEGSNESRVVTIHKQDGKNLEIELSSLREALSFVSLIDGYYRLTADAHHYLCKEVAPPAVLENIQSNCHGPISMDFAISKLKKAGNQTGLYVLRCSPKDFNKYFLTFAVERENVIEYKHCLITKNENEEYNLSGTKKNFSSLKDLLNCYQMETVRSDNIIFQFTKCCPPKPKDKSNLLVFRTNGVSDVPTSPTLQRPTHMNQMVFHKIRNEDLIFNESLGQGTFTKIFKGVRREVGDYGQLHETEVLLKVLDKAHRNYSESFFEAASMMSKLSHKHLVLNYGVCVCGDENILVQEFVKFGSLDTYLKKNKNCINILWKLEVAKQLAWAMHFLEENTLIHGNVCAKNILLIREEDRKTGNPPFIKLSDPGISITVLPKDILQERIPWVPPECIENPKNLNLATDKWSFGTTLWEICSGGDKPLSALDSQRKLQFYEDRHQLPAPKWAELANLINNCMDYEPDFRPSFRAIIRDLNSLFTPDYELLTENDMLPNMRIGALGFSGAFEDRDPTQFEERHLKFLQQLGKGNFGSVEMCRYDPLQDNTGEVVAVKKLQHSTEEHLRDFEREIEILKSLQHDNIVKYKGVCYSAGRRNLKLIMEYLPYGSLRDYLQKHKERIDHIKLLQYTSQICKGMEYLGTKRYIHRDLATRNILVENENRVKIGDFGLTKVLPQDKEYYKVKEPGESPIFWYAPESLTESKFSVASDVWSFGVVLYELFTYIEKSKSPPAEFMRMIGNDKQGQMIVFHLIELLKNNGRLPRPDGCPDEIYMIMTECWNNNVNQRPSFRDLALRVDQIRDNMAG

Usually pKi stands for −log10 of the Ki, conventionally taken in molar units. Take `Cc1cc(Nc2cc(N3CCC3)nc(Sc3ccc(NC(=O)c4ccccc4Cl)cc3)n2)[nH]n1` [Compound I-1, N-{4-[4-Azetidin-1-yl-6-(5-methyl-2H-pyrazol-3-ylamino)-pyrimidin-2-ylsulfanyl]-phenyl}-2-chloro-benzamide]: the pKi on JAK-2 was 6.42; on Aurora-1 (Aurora B) (setting [1]), 8.15; on Aurora-2 (Aurora A) (setting [2]) it was 9.00.
On to `Cc1cc(Nc2cc(N3CCC3)nc(Sc3ccc(NC(=O)c4c(F)cccc4F)cc3)n2)[nH]n1` [Compound I-2, N-{4-[4-Azetidin-1-yl-6-(5-methyl-2H-pyrazol-3-ylamino)-pyrimidin-2-ylsulfanyl]-phenyl}-2,6-Difluoro-benzamide], for which the negative-log Ki (pKi) on JAK-2 is 7.17; on Aurora-1 (Aurora B) (setting [1]), 8.19; at Aurora-2 (Aurora A) (setting [2]), 8.72.
With `Cc1cc(Nc2cc(N3CCC3)nc(Sc3ccc(NC(=O)c4ccccc4F)cc3)n2)[nH]n1` [Compound I-3], the figures for the negative-log Ki (pKi) at JAK-2, on Aurora-1 (Aurora B) (setting [1]) and at Aurora-2 (Aurora A) (setting [2]) were 7.21, 8.00 and 8.66, respectively.
Regarding `Cc1cccc(C(=O)Nc2ccc(Sc3nc(Nc4cc(C)[nH]n4)cc(N4CCC4)n3)cc2)c1` [Compound I-4], the pKi at JAK-2 is 7.09; at Aurora-1 (Aurora B), 7.62; at Aurora-2 (Aurora A), 8.60.
Regarding `Cc1cc(Nc2cc(N3CCC3)nc(Sc3ccc(NC(=O)c4ccccc4C)cc3)n2)[nH]n1` [Compound I-5], the pKi was 6.72 on JAK-2, 7.85 on Aurora-1 (Aurora B) (setting [1]) and 9.06 on Aurora-2 (Aurora A) (setting [2]).
Turning to `COc1ccccc1C(=O)Nc1ccc(Sc2nc(Nc3cc(C)[nH]n3)cc(N3CCC3)n2)cc1` [Compound I-6], the pKi on JAK-2 was 5.96; on Aurora-1 (Aurora B) (setting [1]), 7.59; on Aurora-2 (Aurora A), 8.52.
Taken in the same sequence, the figures for `Cc1cc(Nc2cc(N3CCC3)nc(Sc3ccc(NC(=O)c4ccccc4OC(F)(F)F)cc3)n2)[nH]n1` [Compound I-8] were 5.77, 7.96 and 9.17.
For `Cc1cc(Nc2cc(N3CCC3)nc(Sc3ccc(NC(=O)c4c(Cl)cccc4Cl)cc3)n2)n[nH]1` [Compound I-11] the same measures were 6.48, 8.15 and 9.15.
For `Cc1cc(Nc2cc(N3CCC3)nc(Sc3ccc(NC(=O)c4cccc(Cl)c4)cc3)n2)n[nH]1` [Compound I-12] the same measures were 7.34, 7.72 and 8.85.
Consider `Cc1cc(Nc2cc(N3CCC3)nc(Sc3ccc(NC(=O)c4cccc(C(F)(F)F)c4F)cc3)n2)n[nH]1` [Compound I-13], for which the pKi at JAK-2 is 6.89; on Aurora-1 (Aurora B), 8.22; on Aurora-2 (Aurora A) it was 9.46.
With `Cc1cc(Nc2cc(N3CCC3)nc(Sc3ccc(NC(=O)c4ccccc4C(F)(F)F)cc3)n2)[nH]n1` [Compound I-14], the pKi at JAK-2 is 6.14; on Aurora-1 (Aurora B) (setting [1]), 8.35; at Aurora-2 (Aurora A) (setting [2]), 9.42.
Take `Cc1cc(Nc2cc(N3CCC3)nc(Sc3ccc(NC(=O)c4cccc(Cl)c4F)cc3)n2)n[nH]1` [Compound I-15]: the results for the pKi on JAK-2, at Aurora-1 (Aurora B) (setting [1]) and at Aurora-2 (Aurora A) were 7.34, 8.12 and 9.12, respectively.
`O=C(Nc1ccc(Sc2nc(Nc3cc(C4CC4)[nH]n3)cc(N3CCC3)n2)cc1)c1ccccc1Cl` [Compound I-17]: the figures for the pKi at JAK-2, on Aurora-1 (Aurora B) (setting [1]) and at Aurora-2 (Aurora A) (setting [2]) were 6.39, 8.22 and 9.19, respectively.
Taken in the same sequence, the figures for `Cc1cc(Nc2cc(N3CCC3)nc(Sc3ccc(NC(=O)c4ccccc4C(F)F)cc3)n2)[nH]n1` [Compound I-19] were 6.39, 7.72 and 8.92.
For `Cc1cc(Nc2cc(N3CCC3)nc(Sc3ccc(NC(=O)c4cccc(C)c4Cl)cc3)n2)n[nH]1` [Compound I-20], the negative-log Ki (pKi) on JAK-2 was 6.54; on Aurora-1 (Aurora B) (setting [1]) it was 8.22; at Aurora-2 (Aurora A), 9.11.
Take `Cc1cc(Nc2cc(N3CCC3)nc(Sc3ccc(NC(=O)c4cc(Cl)ccc4Cl)cc3)n2)n[nH]1` [Compound I-21]: the negative logarithm of the Ki (pKi) on JAK-2 is 6.22; on Aurora-1 (Aurora B) (setting [1]) it was 8.19; on Aurora-2 (Aurora A) (setting [2]) it was 9.11.
As to `CCc1cccc(C(=O)Nc2ccc(Sc3nc(Nc4cc(C)[nH]n4)cc(N4CCC4)n3)cc2)c1Cl` [Compound I-22], the figures for the pKi on JAK-2, on Aurora-1 (Aurora B) (setting [1]) and at Aurora-2 (Aurora A) were 6.30, above 8.22 and above 9.46, respectively.
